Counter-ions that a name gives are not always drawn. Like-named read-outs stand apart in the source and are kept apart here.
Legend:
Staphylococcus aureus = assay: Antibacterial activity assay (MIC, broth dilution); type: cell-based; parameters: S. aureus Killing / Bacterial Killing S. aureus: unit not given here; settings: for Bacterial Killing S. aureus: determined as in Example 1E (MIC)
[1] = In vivo efficacy of BAS00127538 (bacteria in spleen and blood); settings: samples collected at 50 hours post-infection from treated animals
Protocol: To determine the efficacy of […] in vivo, samples were collected from vehicle-treated animals at 20 hours or at 50 hours post-infection from vancomycin- and BAS-treated animals.

Streptococcus pneumoniae = assay: Antibacterial activity assay (MIC, broth dilution); type: cell-based
[2] = Pharmacokinetic study in mice (plasma concentration by LC/MS/MS)
[3] = tested on: Burkholderia pseudomallei; type: cell-based; settings: K96243; according to DOD guidelines
in vivo [4] = settings: iv
Enterococcus faecalis = assay: Antibacterial activity assay (MIC, broth dilution); type: cell-based; settings: for MIC: Enterococcus faecalis
Escherichia coli = assay: Antibacterial activity assay (MIC, broth dilution); type: cell-based; settings: for Bacterial Killing E. coli: determined as in Example 1E (MIC)
Pseudomonas aeruginosa = assay: Antibacterial activity assay (MIC, broth dilution); type: cell-based; settings: MMX#-ATCC# 103-27853
Bacillus anthracis = type: cell-based
Enterococcus faecium = assay: Antibacterial activity assay (MIC, broth dilution); type: cell-based; parameters: Bacterial Killing E. faecium: unit: ug/mL; settings: for MIC: Enterococcus faecium; for Bacterial Killing E. faecium: determined as in Example 1E (MIC)
Procedure, shortened: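 Broth dilution MIC per CLSI (M07-A10) in cation-adjusted Mueller Hinton broth with 10% brain-heart infusion; MIC is the lowest concentration preventing visible growth, in μg/mL. Some compounds were run by broth microdilution.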

[5] = in vivo
Yersinia pestis = type: cell-based; settings: CO92; according to DOD guidelines
Burkholderia mallei = type: cell-based; settings: 23344; according to DOD guidelines
CYP3A4 = CYP3A4 (Homo sapiens, UniProt P08684); assay: P450 enzyme inhibition (IC50 fluorescence); type: in vitro ADME
[6] = Maximum Tolerated Dose (MTD) and in vivo toxicity at the MTD; settings: mouse, in vivo, ip
CYP2C19 = CYP2C19 (Homo sapiens, UniProt P33261); assay: P450 enzyme inhibition (IC50 fluorescence); type: in vitro ADME; settings: substrate CEC: 3-cyano-7-ethoxycoumarin
[7] = Plasma / serum stability (LC/MS/MS); type: in vitro ADME; settings: 10 μg/mL, 50% serum
HeLa cells = assay: Cytotoxicity testing (CC50, MTS assay)
CYP2D6 = CYP2D6 (Homo sapiens, UniProt P10635); assay: P450 enzyme inhibition (IC50 fluorescence); type: in vitro ADME; settings: substrate AMMC
in vivo [8] = settings: both, ICR, mouse
[9] = IV administration, single dose […], mice (n=3)
[10] = comparator values repeated from Table 4 (IV, […])
[11] = cation-adjusted Mueller Hinton broth, 10% BHI, read-out: MIC E. faecalis 51299
[12] = cation-adjusted Mueller Hinton broth, 10% BHI, read-out: MIC E. faecalis 51575
[13] = cation-adjusted Mueller Hinton broth, 10% BHI, read-out: MIC E. faecalis C99707
[14] = cation-adjusted Mueller Hinton broth, 10% BHI, read-out: MIC E. faecium C110914
[15] = cation-adjusted Mueller Hinton broth, 10% BHI, read-out: MIC E. faecium IH79985
[16] = cation-adjusted Mueller Hinton broth, 10% BHI, read-out: MIC E. faecium S1559
[17] = PO administration, single oral dose 5 mg/kg, mice (n=3)

CYP3A4, sequence (P08684 whole entry): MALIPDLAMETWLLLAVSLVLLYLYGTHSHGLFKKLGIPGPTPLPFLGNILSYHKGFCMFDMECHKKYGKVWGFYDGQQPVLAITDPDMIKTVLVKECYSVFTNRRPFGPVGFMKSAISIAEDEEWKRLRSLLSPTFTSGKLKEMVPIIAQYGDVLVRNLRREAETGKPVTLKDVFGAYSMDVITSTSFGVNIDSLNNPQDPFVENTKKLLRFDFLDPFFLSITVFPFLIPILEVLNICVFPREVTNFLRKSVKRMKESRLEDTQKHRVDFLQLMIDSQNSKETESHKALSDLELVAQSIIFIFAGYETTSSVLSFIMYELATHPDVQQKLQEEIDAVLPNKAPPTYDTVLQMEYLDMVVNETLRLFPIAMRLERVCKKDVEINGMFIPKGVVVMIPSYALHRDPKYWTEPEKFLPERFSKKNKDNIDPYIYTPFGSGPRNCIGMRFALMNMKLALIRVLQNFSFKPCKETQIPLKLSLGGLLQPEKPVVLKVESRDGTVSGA
CYP2D6, sequence (P10635 whole entry): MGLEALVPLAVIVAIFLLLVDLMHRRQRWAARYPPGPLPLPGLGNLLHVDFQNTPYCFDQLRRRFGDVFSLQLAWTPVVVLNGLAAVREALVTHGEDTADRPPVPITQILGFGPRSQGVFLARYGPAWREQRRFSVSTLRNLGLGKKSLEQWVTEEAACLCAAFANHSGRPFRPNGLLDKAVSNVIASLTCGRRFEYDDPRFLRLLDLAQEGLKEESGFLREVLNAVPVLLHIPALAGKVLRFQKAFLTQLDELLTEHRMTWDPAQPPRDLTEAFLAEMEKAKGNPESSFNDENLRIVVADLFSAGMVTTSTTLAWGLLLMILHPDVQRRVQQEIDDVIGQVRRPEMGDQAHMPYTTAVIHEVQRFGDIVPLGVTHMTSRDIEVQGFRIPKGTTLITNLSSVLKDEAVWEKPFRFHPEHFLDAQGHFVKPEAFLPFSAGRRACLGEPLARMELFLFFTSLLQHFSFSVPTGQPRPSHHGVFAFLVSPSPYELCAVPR
CYP2C19, sequence (P33261 whole entry): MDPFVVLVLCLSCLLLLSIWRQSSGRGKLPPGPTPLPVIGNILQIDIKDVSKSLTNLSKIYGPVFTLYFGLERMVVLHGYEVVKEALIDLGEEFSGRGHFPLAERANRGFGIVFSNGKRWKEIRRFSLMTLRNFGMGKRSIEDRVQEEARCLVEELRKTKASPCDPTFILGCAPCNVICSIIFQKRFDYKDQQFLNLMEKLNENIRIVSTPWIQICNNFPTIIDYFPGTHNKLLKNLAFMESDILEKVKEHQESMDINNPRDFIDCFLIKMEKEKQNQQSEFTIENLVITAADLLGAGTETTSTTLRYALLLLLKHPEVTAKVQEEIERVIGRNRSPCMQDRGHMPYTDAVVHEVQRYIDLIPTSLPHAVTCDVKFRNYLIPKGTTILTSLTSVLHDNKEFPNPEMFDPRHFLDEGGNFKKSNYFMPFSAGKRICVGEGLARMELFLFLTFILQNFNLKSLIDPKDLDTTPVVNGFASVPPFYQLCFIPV

## CN1/C(=C/C=C/c2cc(-c3ccccc3)cc(-c3ccccc3)[o+]2)C(C)(C)c2ccccc21 [BAS00127538, 1-methyl-2,4-diphenyl-6-((1E,3E)-3-(1,3,3-trimethylindolin-2-ylidene)pro-p-1-en-1yl)pyryl-1-ium) tetrafluoroborate]
Staphylococcus aureus; MMX#-ATCC# 100-29213
  MIC Staphylococcus aureus: 0.5 µg/mL
[1]
  survival of treated animals: One animal treated with BAS did not survive beyond 28 hours
Streptococcus pneumoniae; MMX#-ATCC# 884-NA, penicillin-resistant
  MIC Streptococcus pneumoniae (PRSP): 8 µg/mL
Streptococcus pneumoniae; MMX#-ATCC# 1195-49619
  MIC Streptococcus pneumoniae: 8 µg/mL
[2]; [9]
  Cl_obs: 711 mL/min/kg
  T1/2: 0.227 h
  Vss_obs: 12.2 L/kg
[2]; [10]
  T1/2: 0.227 h
[2]; comparator values repeated from Table 4 (IV, […]), AUClast/D
  AUClast/D: 26.9 ng·h/mL
[2]; intravenous administration, single dose […], mice
  volume of distribution: 12.2 L/kg
[3]
  MIC Burkholderia pseudomallei*: 64 µg/mL
In vivo [4]; male, CD1, mouse, plasma, […]
  half-life: 0.22 h
Enterococcus faecalis; [11]
  MIC: 2 µg/mL
Enterococcus faecalis; [12]
  MIC: 2 µg/mL
Enterococcus faecalis; [13]
  MIC: 2 µg/mL
Enterococcus faecalis; MMX#-ATCC# 101-29212
  MIC Enterococcus faecalis: 1 µg/mL
Enterococcus faecalis; MMX#-ATCC# 848-NA, vancomycin-resistant
  MIC Enterococcus faecalis (VRE): 1 µg/mL
Escherichia coli; MMX#-ATCC# 102.25922
  MIC Escherichia coli: 4 µg/mL
Pseudomonas aeruginosa
  MIC Pseudomonas aeruginosa: > 8 µg/mL
Bacillus anthracis; Ames, spores, according to DOD guidelines
  MIC Bacillus anthracis (spores)*: 0.5 µg/mL
Bacillus anthracis; Ames, according to DOD guidelines
  MIC Bacillus anthracis*: 0.5 µg/mL
Bacillus anthracis; MMX#-ATCC# 109-NA
  MIC Bacillus anthracis Sterne: 0.5 µg/mL
Enterococcus faecium; [14]
  MIC: 2 µg/mL
Enterococcus faecium; [15]
  MIC: 2 µg/mL
Enterococcus faecium; [16]
  MIC: 2 µg/mL
[5]; mouse, po, 5 mg/kg
  detection in plasma: could not be detected
Yersinia pestis
  MIC Yersinia pestis*: 8 µg/mL
Burkholderia mallei
  MIC Burkholderia mallei*: > 64 µg/mL

## CN(C)c1ccc(/C=C/c2cc(-c3ccc(Br)cc3)cc(-c3ccc(Br)cc3)[o+]2)cc1 [Compound 6jc48-1, (E)-2,4-bis(4-bromophenyl)-6-(4-(dimethylamino)styryl)pyrylium boron tetrafluoride salt]
CYP3A4; substrate BFC: 7-benzoyloxy-4-triflluoromethyl coumarin, read-out: P450 enzyme inhibition (IC50 fluorescence) CYP3A4/BFC
  IC50: 1.3 µM
CYP3A4; substrate DBF: dibenzylfluorescein, read-out: P450 enzyme inhibition (IC50 fluorescence) CYP3A4/DBF
  IC50: > 10 µM
[6]
  MTD: ≤ 100 mg/kg
CYP2C19
  IC50: > 10 µM
Staphylococcus aureus
  Bacterial Killing S. aureus: 16
[7]; after 2 hours
  stability in serum: stable after 2 hours in serum
[7]; after 19 hours
  compound remaining: 46%
[2]; [9]
  AUClast/D: 5.36e+08 ± 4.7e+07 ng·h/mL
  Cl_obs: 23.6 ± 1.7 mL/min/kg
  T1/2: 13.3 ± 1.8 h
[2]; [17]
  AUCInf: 90 ng·h/mL
  AUClast: 46.9 ng·h/mL
  Cmax: 19.1 ng/mL
  Finf (inferred bioavailability): 2.54%
  Flast (bioavailability at last time point): 1.9%
  T1/2: 2.78 h
[2]; [10]
  Cl—obs: 23.6 ± 1.7 mL/min/kg
  T1/2: 13.3 ± 1.8 h
In vivo [4]; male, CD1, mouse, plasma, […]
  Vd: ~23 L/kg
In vivo [4]; male, mouse, in vivo, […]
  Vd: 22.8 ± 2.9 L/kg
Enterococcus faecalis; MIC quoted with the macromolecular synthesis data (FIG. 11), strain not given, MMS run on E. faecalis EF1509, read-out: MIC
  MIC: 4 µg/mL
Enterococcus faecalis; [11]
  MIC: 4 µg/mL
Enterococcus faecalis; [12]
  MIC: 2 µg/mL
Enterococcus faecalis; [13]
  MIC: 2 µg/mL
Enterococcus faecalis; clinical isolates sensitive to linezolid and daptomycin, n = 5, read-out: MIC E. faecalis* clinical isolates
  MIC: 4 to 16 µg/mL
Escherichia coli
  Bacterial Killing E. coli: >64
HeLa cells
  reduction in cytotoxicity compared to the parent BAS00127538: 50 fold
Enterococcus faecium; [14]
  MIC: 4 µg/mL
Enterococcus faecium; [15]
  MIC: 8 µg/mL
Enterococcus faecium; [16]
  MIC: 2 µg/mL
Enterococcus faecium; clinical isolates sensitive to linezolid and daptomycin, n = 5, read-out: MIC E. faecium* clinical isolates
  MIC: 4 to 16 µg/mL
Enterococcus faecium
  Bacterial Killing E. faecium: 4
[5]; CD1, mouse, po, 5 mg/kg
  AUCextrap: 48.6%
  Vss_obs: 1.75 L/kg
[5]; male, CD1, mouse, iv, […]
  Volume of distribution at equilibrium (Vs): 22.8
  Vss_obs: 22.8 ± 2.9 L/kg
CYP2D6
  IC50: > 10 µM

## CN(C)c1ccc(/C=C/c2cc(-c3ccc(F)cc3)cc(-c3ccc(F)cc3)[o+]2)cc1 [Compound 7jc47-1, (E)-2-(4-(dimethylamino)styryl)-4,6-bis(4-fluorophenyl) pyrylium boron tetrafluoride salt]
Staphylococcus aureus
  Bacterial Killing S. aureus: 1
[2]; mouse, in vivo, iv, 10 mg/kg
  T1/2: 6.81 ± 1.33 h
In vivo [8]
  MTD at 72 h: 60 mg/kg
In vivo [4]; CD1, mouse, plasma, 10 mg/kg
  AUC(0-inf): 578 ± 175 ng·h/mL
  Cmax: 3220 ± 1500 ng/mL
  MRT: 1.74 ± 0.49 h
  Vd: 46.3 ± 12.9 L/kg
  half-life: ~7 h
Escherichia coli
  Bacterial Killing E. coli: >64
HeLa cells
  cytotoxicity in vitro: no observable cytotoxicity in vitro
Enterococcus faecium
  Bacterial Killing E. faecium: 1
[5]; CD1, mouse, iv, 10 mg/kg
  AUCextrap: 2.25 ± 1.13%
  Cl3: 23.6 ± 1.7 mL/min/kg
